# Measurements published in patent US11813244B2, “Agent for eliminating senescent cells” (NIIGATA UNIVERSITY, priority 2016, dated 2023).
# Entries after “also recorded” stand apart in the source; their conditions may differ.
# How the values were obtained:
# [1] = system: human umbilical cord vein derived vascular endothelial cells (HUVECs); test: Cell viability of young and aged HUVECs (ApoTox-Glo Triplex Assay); type: cell-based; conditions: 48 hours, 2DG 1 mM, 3HB 20 mM, AIC 200 μM; for selectivity of the effects for aged versus young cells: aged (15 passages or more) vs young (less than 10 passages) HUVECs, viability and apoptosis; for cell viability: young and aged HUVECs, relative to Con
# Experimental: (§1) Specifically, human umbilical cord vein derived vascular endothelial cells (HUVECs, Lonza) were cultured in a prescribed culture medium (EBM-2/EGM-2, Lonza). Less than 10 passages were defined as young and 15 passages or more were defined as aged. For young or aged HUVEC, 2DG, 3HB, and AIC were added to the culture solutions at the concentrations of 1 mM, 20 mM, and 200 μM, respectively, and the cells were harvested after 48 hours. The collected cells were evaluated for viability by fluorescence/absorbance measurements using ApoTox-Glo™ Triplex Assay kit (Promega). Dead cells were stained using AnnexinV (Becton & Dickinson (BD)), PI (Sigma-Aldrich), and Hoechst 33258 (Invitrogen), and the percentage of apoptosis-induced cells was quantified by FACS analysis.
# [2] = system: human umbilical cord vein derived vascular endothelial cells (HUVECs); test: Apoptosis induction in young and aged HUVECs (AnnexinV/PI/Hoechst 33258, FACS analysis); type: cell-based; conditions: 48 hours, relative to Con, 2DG 1 mM, 3HB 20 mM, AIC 200 μM
# Experimental: as §1
# [3] = system: senescent cells in the visceral adipose tissues; test: Senescence-associated acidic β-galactosidase staining of visceral adipose tissue of diet-induced obesity model mice; type: in vivo, mice (C57BL/6NCr); conditions: canagliflozin 0.03% w/w in diet, one week
# Experimental: (§2) Four-week-old wild-type mice (C57BL/6NCr) were fed with high fat diets for 8 weeks to prepare diet-induced obesity model mice. Then, canagliflozin, an SGLT2 inhibitor, was administered orally to the prepared obesity model mice by mixing with the diet at the concentration of 0.03% w/w (hereinafter referred to as “high fat diet+SGLT2i group”).
# For comparison, four-week-old wild-type mice (C57BL/6NCr) fed with normal diets for 8 weeks (hereinafter referred as “normal diet group”) and obesity model mice prepared in the same manner as described above with the exception of not administering canagliflozin (hereinafter referred to as “high fat diet group”) were prepared.
# The visceral adipose tissues (epididymal adipose tissues) were collected from the mice of each group one week after starting administration of canagliflozin in Experimental Example 1.
# (§3) Then, the senescent cells in the visceral adipose tissues collected from the mice of each group were detected according to the conventional method (Dimri, G. P. et al., Proc. Natl. Acad. Sci. U.S.A., 92(20), 9363-9367, 1995). Specifically, each of the visceral adipose tissues was stained with senescence-associated acidic β-galactosidase and the senescent cells were detected. The senescent cells were stained blue by this staining.
# p53 protein = test: Western blotting of p53 protein in visceral adipose tissue of obesity model mice; type: in vivo, mice (C57BL/6NCr); conditions: canagliflozin 0.03% w/w in diet, one week
# Experimental: as §2
# Specifically, expression level of p53 protein was measured by Western blotting using a portion of the visceral adipose tissues collected in Experimental Example 2. Type 1C12 (CST) was used as the anti-p53 antibody. Anti-β-actin antibody (type 13E5, CST) was used as the antibody to detect β-actin protein, which is the loading control.
# [4] = system: p21 (Cdkn1a) and p16 (Cdkn2a) mRNA; test: Quantitative RT-PCR of senescence markers p21 (Cdkn1a) and p16 (Cdkn2a) in visceral adipose tissue of obesity model mice; type: in vivo, mice (C57BL/6NCr); conditions: canagliflozin 0.03% w/w in diet, 3 days and 1 week, relative to Actb
# Experimental: as §2
# (§4) Specifically, RNA was extracted with RNA-Bee™ (Tel-Test) from a portion of the visceral adipose tissue (epididymal adipose tissue) collected from the mice of each group 3 days and 1 week after starting administration of canagliflozin. The collected RNA was quantified by Nanodrop (Thermo), and cDNA was then prepared from 1 μg of the RNA using QuantiTect Reverse Transcription Kit (Quiagen). This cDNA was used to quantify the relative expression of mRNAs of p21 and p16 using Actb as the housekeeping gene by quantitative RT-PCR method using Light Cycler 480 (Roche), and TaqMan Universal Probe Library and the Light Cycler Master (Roche). The primers for each RNA were designed using the Probe finder on the Roche website.
# visceral adipose tissue = test: Adipose inflammation and oxidative stress in adipose tissue of obesity model mice (HE, DHE, F4/80 staining, CCL2 and TNFα RT-PCR); type: in vivo, mice (C57BL/6NCr); conditions: visceral fat
# Experimental: as §2
# Specifically, a portion of the visceral fat collected in Experimental Example 4 was immersed and fixed with 10% Mildform (Wako) for at least 24 hours. The sample was dehydrated and embedded in paraffin, and sliced into 5-μm thick. The slices were stuck on slides and subjected to hematoxylin-eosin (HE) staining, dihydroethidium (DHE) staining, or immunofluorescent staining with F4/80 antibody. The stained slices were imaged using Biorevo (Keyence Co.), or where necessary, using confocal microscopy. For the HE staining, the images were photographed at 400× magnification, and the mean number of the crown like structures per one 40× field of view was counted as well. For the DHE staining, the percentage (%) of a red color value equal to or greater than a certain value relative to a randomly photographed 400× image per one field of view was measured using ImageJ. For the Immunofluorescent staining with F4/80 antibody, percentage (%) of F4/80 positive cells per nucleus in one field of view was measured. In addition, mRNAs of CCL2 and TNFα were quantified by quantitative RT-PCR method according to the method described in Experimental Example 4.
# [5] = system: p16 and p21 mRNA in heart, kidney, skeletal muscle (quadriceps), and brown adipose tissue; test: Quantitative RT-PCR of p16 and p21 in organs other than visceral adipose tissue of obesity model mice; type: in vivo, mice (C57BL/6NCr); conditions: SGLT2 inhibitor administration for 7 days
# Experimental: as §2, §4
# Specifically, mRNA expression levels of p16 and p21 in heart, kidney, skeletal muscle (quadriceps), and brown adipose tissue, which were collected from the same mice when the visceral adipose tissue was collected in Experimental Example 2, were quantified using the same methods described in Experimental Example 4.
# [6] = system: senescent cells in blood vessels; test: Senescence-associated β-galactosidase staining of blood vessels of atherosclerotic model mice; type: in vivo, ApoE-deficient (ApoE−/−) mice; conditions: ApoE−/− mice on high fat diet 12 weeks, canagliflozin 0.03% w/w in diet, 2 weeks, vs HFD group
# Excerpt: as §3
# Four-week-old ApoE-deficient (ApoE^−/−) mice were fed with high fat diets for 12 weeks, followed by oral administration of canagliflozin, an SGLT2 inhibitor, mixed in the diet at the concentration of 0.03% w/w (hereinafter referred to as “HFD+SGLT2i group”). For comparison, the same mice as described above with the exception of not administering canagliflozin (hereinafter referred to as “HFD group”) were prepared. The blood vessels (from the aorta base to the descending aorta on the diaphragm) were collected from the mice of each group 2 weeks after starting administration of canagliflozin. Subsequently, the senescent cells in blood vessels collected from the mice of each group were detected according to the method described in Experimental Example 2. The stainability was measured at a part ranging from the ascending aorta to the branch of the arch left subclavian artery.
# [7] = system: Hutchinson-Gilford progeria model mice (Zmpste24-deficient mice); test: General condition of Hutchinson-Gilford progeria model mice; type: in vivo; conditions: canagliflozin 0.03% w/w in diet, 3 to 4 weeks, KO+SGLT2i vs KO
# Excerpt: Canagliflozin, an SGLT2 inhibitor, mixed in a diet at the concentration of 0.03% w/w was orally administered to 13-week-old Hutchinson-Gilford progeria model mice (Zmpste24-deficient mice), and the general condition of the mice was observed.
# [8] = Metabolome analysis of blood and various tissues of mice after short-term administration of the SGLT2 inhibitor; type: in vivo
# Excerpt: It is known that SGLT2 inhibition accelerates fatty acid oxidation and suppresses glycolysis, and that acceleration of glycolysis is observed in senescent cells. Then, whether 3-hydroxybutyrate (hereinafter referred to as “3HB”), AICAR (hereinafter referred to as “AIC”), and 2-deoxyglucose (hereinafter referred to as “2DG”) that has an inhibitory effect on glycolysis have effects to induce apoptosis of senescent cells were examined.
# [9] = SGLT2 inhibitor administration for 3 days and 7 days
# [10] = SGLT2 inhibitor administration for 7 days
smiles,measurement,setting,value
"O=CC[C@@H](O)[C@H](O)[C@H](O)CO [2DG, 2-deoxyglucose]",selectivity of the effects for aged versus young cells,[1],in an aged cell-selective manner
same,cell viability,[1],decrease of the cell viability
same,apoptosis induction (percentage of apoptotic cells),[2],increase the apoptosis induction
"CC(O)CC(=O)O (stereo not shown) [3HB, 3-hydroxybutyrate]",selectivity of the effects for aged versus young cells,[1],in an aged cell-selective manner
same,cell viability,[1],decrease of the cell viability
same,apoptosis induction (percentage of apoptotic cells),[2],increase the apoptosis induction
"NC(=O)c1ncn([C@@H]2O[C@H](CO)[C@@H](O)[C@H]2O)c1N [AIC, 5-Aminoimidazole-4-carboxamide-1-β-D-ribofuranoside]",selectivity of the effects for aged versus young cells,[1],not in an aged cell-selective manner; also recorded: more potent effects in the young cells
same,cell viability,[1],decreased cell viability
same,apoptosis induction (percentage of apoptotic cells),[2],increased apoptosis induction
"Cc1ccc([C@@H]2O[C@H](CO)[C@@H](O)[C@H](O)[C@H]2O)cc1Cc1ccc(-c2ccc(F)cc2)s1 [canagliflozin, (1S)-1,5-Anhydro-1-C(-3{[5-(4-fluorophenyl)thiophen-2-yl]methyl}-4-methylphenyl)-D-glucitol]",inflammation at the visceral fat,[3]; high fat diet+SGLT2i group mice,alleviation of inflammation at the visceral fat was also observed
same,senescent cells in the visceral adipose tissue (senescence-associated acidic β-galactosidase staining),"[3]; obesity model mice, oral, vs high fat diet group",significantly decreased the senescent cells in the visceral adipose tissue
same,expression level of p53 in the visceral adipose tissue (Western blotting),p53 protein,significantly lowered
same,p16 mRNA levels in visceral adipose tissue,[4],a similar trend was observed for p16
same,p21 mRNA levels in visceral adipose tissue,[4],significantly suppressed the increase of p21 mRNA levels
same,mRNA expression of CCL2,visceral adipose tissue; [9],tended to decrease
same,mRNA expression of TNFα,visceral adipose tissue; [9],tended to decrease
same,macrophage infiltration into adipose tissue (immunofluorescent staining with F4/80),visceral adipose tissue; [9],macrophage infiltration into adipose tissue remained
same,"infiltration of macrophages and CLS structures (HE staining, number of CLS)",visceral adipose tissue; [10],significantly decreased
same,"oxidative stress (DHE staining, DHE positive area)",visceral adipose tissue; [10],significantly suppressed
same,mRNA levels of p16 in the brown adipose tissue,[5],tended to decrease
same,mRNA levels of p16 in the kidney,[5],tended to decrease
same,mRNA levels of p21 in the heart,[5],tended to decrease
same,mRNA levels of p21 in the kidney,[5],tended to decrease
same,mRNA levels of p21 in the skeletal muscle,[5],tended to decrease
same,senescent cells in blood vessels (senescence-related β-galactosidase stainability),[6],decreased the senescent cells stained blue
same,deterioration of hair consistency and alopecia,[7],reduced
same,AICAR in blood,[8],significant increase of AICAR
same,ketone body concentration in blood and each tissue,[8],increase of ketone body concentration in blood and each tissue
